Patent publication USRE35801E, “Prophylactic and therapeutic composition for circulatory disorders and method of treatment” (priority 1985, dated 1998)
Where “and” joins values, the source holds several entries; their conditions need not be identical. Equal entries are not always repeated.

What was measured:
[1] = system: cerebral ischemia recirculation model; assay: Protective action in cerebral ischemia recirculation model; format: in vivo, Wistar-strain male rat; design: key to Presence of electroencephalogram restoration / Judgement of action: The case when restoration of electroencephalogram is judged as +; case when not recognized as -
Description: (3) Protective action in cerebral ischemia recirculation model
A Wistar-strain male rat weighing about 400 g was administered intramascularly with 0.6 mg of di-tubocurarine to be immobilized and, after a trachea cannulation, the head portion was fixed under artificial respiration on a stereotaxic device. The head skin was cut open, cranial bone was bored, and then bipolar electrode for lead-out of electroencephalogram were placed on the surface of the subdural left frontal cerebral cortex. After the electrode was fixed with the cranial bone by use of dental cement, the animal was held on its back. Next, a cannula for measurement of systemic pressure was placed within the left femoral artery, and a cannula for additional administration of d-tubocurarine within the left femoral vein, respectively. The heart rate was measured and recorded by driving a heart rate meter with the artery wave.
After blood pressure, heart rate and various parameters of electroencephalogram were stabilized, 10 mg/kg of the active ingredient of the present invention prepared in a suspension so as to give 1 ml/kg in 1% tragacanth gum solution was administered directly into duodenum […]. To the control group, only the 1% tragacanth gum solution of the same volume was administered similarly.
Ten to twenty minutes after administration of the medicine, while monitoring the electroencephalogram, blood pressure and heart rate on a multi-purpose monitoring recording device (RM-85 model, produced by Nippon Koden K.K.), the following operations were performed according to the methods shown below for cerebral ischemia loading.
First, ribs were set free at the left costicartilage end to open the chest. Next, cerebral blood flow was blocked for ten minutes by obstructing the left common carotid artery and the left subclavian artery exposed at the aorta originating portion at the same time, and then the brachiocephalic trunk by use of artery clips 30 minutes after administration of the medicine.
Recirculation of cerebral blood flow was effected by releasing at the same time the two artery clips mounted on the respective sites as mentioned above.
The protective action of the medicine for the disorder after recirculation of cerebral ischemia was examined by the presence of restoration of electroencephalogram, and survival time of animal after the recirculation.
During the experiment, the rectal temperature of the animal was maintained at 37° to 38° C. by use of a warming mat. Also, the rectal temperature was continuously drawn on the recorder together with electroencephalogram, femoral artery pressure and heart rate.

[2] = system: cerebral ischemia recirculation model; assay: as above; format: in vivo, Wistar-strain male rat; design: key to Judgement of action: The case when restoration of electroencephalogram is judged as +; case when not recognized as -; settings: 3 mg/kg
rat = rat oral administration; cited from earlier work
mouse = mouse intraperitoneal administration; cited from earlier work
[3] = National Cancer Institute Report, 1978; cited from earlier work

SMILES: CC1=NN(c2ccccc2)C(=O)C1 [Compound 1, 3-methyl-1-phenyl-2-pyrazolin-5-one]
- Presence of electroencephalogram restoration ([1]; 10 mg/kg into duodenum, 10 min cerebral ischemia (Table 3)): +
- Survival time after recirculation, average ([1]; 10 mg/kg, average): 117 min
- Judgement of action ([1]; 10 mg/kg, individual animal): +
- Presence of electroencephalogram restoration ([1]; 10 mg/kg, individual animal): +
- Survival time after recirculation ([1]; 10 mg/kg, individual animal): 46 min and 140 min and 164 min
- electroencephalogram restoration during recirculation period (in words) ([1]; active ingredient group): electroencephalogram appeared by restoration during recirculation period depending on the dose of 3 to 10 mg/kg
- survival time of animals after recirculation (in words) ([1]; active ingredient group): clearly elongated
- Survival time after recirculation, average ([2]; average): 106 min
- Judgement of action ([2]; individual animal): + and -
- Survival time after recirculation ([2]; individual animal): 85 min and 126 min
- LD50 (rat): 3500 mg/kg
- LD50 (mouse): 2012 mg/kg
- carcinogenicity [3]: free from carcinogenicity
